Measured values from ChEMBL document CHEMBL3399956, “Cell-based biological evaluations of 5-(3-bromo-4-phenethoxybenzylidene)thiazolidine-2,4-dione as promising wound healing agent” (Bioorg Med Chem, 2015).
pIC50: −log10 of the molar value. The source made the active and inactive calls. No cut-off for these calls is given here.

Experiments:
HS27 [1] = assay: In vitro wound healing effect on human HS27 cells assessed as wound healing at 5 uM after 48 hrs; format: functional, cell-based
HS27 [2] = assay: Induction of RUNX1 expression in human HS27 cells at 5 uM by qRT-PCR analysis; format: functional, cell-based
[3] = target: T1, 15-hydroxyprostaglandin dehydrogenase [NAD(+)] (Homo sapiens, UniProt P15428); assay: Inhibition of 15-PGDH (unknown origin) by fluorescence spectrophotometry
T1 sequence (P15428 whole entry): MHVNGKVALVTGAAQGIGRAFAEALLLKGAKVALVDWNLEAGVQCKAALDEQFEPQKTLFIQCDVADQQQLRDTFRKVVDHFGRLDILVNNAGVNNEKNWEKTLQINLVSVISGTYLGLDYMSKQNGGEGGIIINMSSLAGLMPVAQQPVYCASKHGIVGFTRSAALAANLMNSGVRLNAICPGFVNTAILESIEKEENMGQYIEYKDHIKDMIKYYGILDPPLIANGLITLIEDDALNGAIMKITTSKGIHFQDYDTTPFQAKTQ

[4] = target: T2, 15-hydroxyprostaglandin dehydrogenase [NAD(+)] (Homo sapiens) (UniProt P15428); assay: Inhibition of 15-PGDH in human A549 cells assessed as increase in PGE2 level at 5 uM after 12 hrs by immunoassay relative to control; format: cell-based
T2 sequence (whole entry): T1 sequence (P15428 whole entry)

HS27 [5] = assay: Induction of GATA2 expression in human HS27 cells at 5 uM by qRT-PCR analysis; format: functional, cell-based
HaCaT [6] = assay: In vitro wound healing effect on human HaCaT cells assessed as improvement wound healing at 5 uM after 48 hrs; format: functional, cell-based
[7] = target: T2, 15-hydroxyprostaglandin dehydrogenase [NAD(+)] (Homo sapiens); assay: Inhibition of 15-PGDH in human A549 cells assessed as increase in PGE2 level after 12 hrs by immunoassay; format: cell-based
HS27 [8] = assay: Induction of SCL expression in human HS27 cells at 5 uM by qRT-PCR analysis; format: functional, cell-based
HS27 [9] = assay: Induction of C-MYB expression in human HS27 cells at 5 uM by qRT-PCR analysis; format: functional, cell-based
HS27 [10] = assay: Induction of KDR expression in human HS27 cells at 5 uM by qRT-PCR analysis; format: functional, cell-based
HaCaT [11] = assay: Induction of SCL expression in human HaCaT cells at 5 uM by qRT-PCR analysis relative to control; format: functional
HS27 [12] = assay: Induction of LMO2 expression in human HS27 cells at 5 uM by qRT-PCR analysis; format: functional, cell-based
HaCaT [13] = assay: In vitro wound healing effect on human HaCaT cells assessed as wound healing at 5 uM after 48 hrs in presence of 15-PGDH; format: functional, cell-based

pIC50 [3]	Activity [4]	fold change (FC) [4]	Activity [7]	SMILES	inhibition (HS27 [1])	Activity (HS27 [2])	Activity (HS27 [5])	Activity (HaCaT [6])	Activity (HS27 [8])	Activity (HS27 [9])	Activity (HS27 [10])	fold change (FC) (HaCaT [11])	Activity (HS27 [12])	inhibition (HaCaT [13])	Activity (HaCaT [11])
8.40	451 pg/mL	7	Dose-dependent effect	O=C1NC(=O)/C(=C/c2ccc(OCCc3ccccc3)c(Br)c2)S1	inactive	inactive	inactive	Active	inactive	inactive	inactive	2	inactive	inactive	–
–	–	–	–	COc1ccc2c(c1)c(CC(=O)O)c(C)n2C(=O)c1ccc(Cl)cc1	–	–	–	–	–	–	–	–	–	–	inactive
–	Active	–	–	O=C1NC(=O)/C(=C/c2ccc(OCCCc3ccccc3)c(Br)c2)S1	–	–	–	–	–	–	–	–	–	–	–
